Experimental data as given in patent US6613762B2, “Gambogic acid, analogs and derivatives as activators of caspases and inducers of apoptosis” (Cytovia, Inc., priority 1999, dated 2003).

Experiments:
[1] = tested on: ZR-75-1 cells; experiment: Inhibition of cell proliferation (GI50) and cell death (LC50), ZR-75-1; type: cell-based; settings: ZR-75-1, 48 h; read-out: GI50 (dose for 50% inhibition of cell proliferation)
Method: (§1) T47D, ZR-75-1, PC-3, human prostate cancer cell line DU-145, human non-small cell lung cancer cell line A-549, human small cell lung cancer cell line SHP-77, HL-60 and MRC-5 cells were grown and harvested as in Example 90. […] The samples were mixed by agitation and incubated at 37° C. for 2-4 h in a 5% CO2-95% humidity incubator. […] This determines the possible background absorbance of the test compounds. No absorbance for gambogic acid or its analogs or derivatives was found at 490 nm. After the 2-4 h incubation, the samples were read for absorbance as above (ATest).
(§2) Baseline for GI50 (dose for 50% inhibition of cell proliferation) and LC50 (dose for 50% cell death) of initial cell numbers was determined by adding an aliquot of 90 μl of cells or 90 μl of media, respectively, to wells of a 96-well microtiter plate containing 10 μl of a 10% DMSO in RPMI-1640 media solution. […] The samples were mixed by agitation and incubated at 37° C. for 2-4 h in a 5% CO2-95% humidity incubator. Absorbance was read as above, (AT=0) defining absorbance for initial cell number used as baseline in GI50 determinations and (Amin) defining absorbance for media alone used as baseline in LC50 determinations.
(§3) GI50 (dose for 50% inhibition of cell proliferation)
(§4) LC50 (dose for 50% cell death)
(§5) 50=100×[(ATest−Amin)/(AT=0−Amin)]

[2] = tested on: PC-3 cells; experiment: Inhibition of cell proliferation (GI50) and cell death (LC50), PC-3; type: cell-based; settings: PC-3, 48 h; read-out: GI50 (dose for 50% inhibition of cell proliferation)
Method: as §1, §2, §3, §4, §5

[3] = tested on: human prostate cancer cell line DU-145; experiment: Inhibition of cell proliferation (GI50) and cell death (LC50), DU-145; type: cell-based; settings: DU-145, 48 h; read-out: GI50 (dose for 50% inhibition of cell proliferation)
Method: as §1, §2, §3, §4, §5

[4] = tested on: caspase activity, T47D cells; experiment: Caspase induction and its inhibition by caspase inhibitor (Example 97), T47D; type: cell-based, human; set-up: key to Inhibition of caspase activity by Inhibitor: The caspase activity detected was inhibited by the caspase inhibitor (+)
Method: (§6) T47D, ZR-75, PC3, SHP-77 and A-549 cells were maintained and harvested as described in Example 90. Cells were added to 96-well plates as described in Example 90. The cells were treated with 10 μM gambogic acid, in the presence and in the absence of 10 μM caspase inhibitor cbz-Val-Asp-fmk (Cytovia, Inc.; WO99/18781). The plate was incubated up to 24 h at 37° C in a 5% CO2-95% humidity incubator. Caspase activity was determined by addition of a fluorogenic substrate as described in Example 90.
(§7) Gambogic acid induced caspase activity in a ratio of greater than 2.5 (+) above untreated cell levels in all the tested cancer cell lines (Table IV). The caspase activity detected was inhibited by the caspase inhibitor (+), confirming that the fluorescent signal was due to caspase activity.

[5] = tested on: caspase activity, PC-3 cells; experiment: Caspase induction and its inhibition by caspase inhibitor (Example 97), PC-3; type: cell-based, human; set-up: key to Inhibition of caspase activity by Inhibitor: The caspase activity detected was inhibited by the caspase inhibitor (+)
Method: as §6, §7

[6] = tested on: T47D cells; experiment: Morphological change of T47D cells (phase contrast); type: cell-based, human; settings: 2.5 μM
Method: In addition, apoptotic adherent cells in culture lose their ability to remain attached to the culture dish. The ability of gambogic acid to trigger these morphological changes in T47D cells was investigated.
60 mm culture dishes were seeded with 750,000 T47D cells and the cultures were incubated under normal growth conditions (complete medium with 10% FBS) for 24 h. The cells were then treated with 2.5 μM of gambogic acid and further incubated under normal growth conditions for 2 or 6 h. Morphological changes were documented by photographing the cells under phase contrast illumination.

[7] = tested on: T47D breast cancer cells; experiment: Nuclear fragmentation in T47D breast cancer cells (Syto16 stain); type: cell-based, human; settings: 10 μM, 24 h (FIG. 2B)
Method: T47D cells were grown and plated as described in Example 90. The cells were treated with 10 μM of gambogic acid and the plate was incubated for up to 24 h at 37° C. in a 5% CO2-95% humidity incubator. At 24 h, the cells were incubated with a live cell nucleic acid stain, Syto16 (Molecular Probes) which stains DNA. After 2 washes with PBS, cells were examined under a fluorescence microscope. […] Nuclear fragmentation is a clear indicator of cellular apoptosis.

[8] = tested on: caspase activity, T47D cells and MRC-5 cells; experiment: Dose response of caspase activation in T47D versus normal fibroblasts MRC-5; type: cell-based, human; settings: 2 h incubation, two-fold serial dilutions (FIG. 4)
Method: T47D cells and MRC-5 cells were maintained and harvested as described in Example 90. An aliquot of 45 μl of cells was added to each well of a 96-well microtiter plate. To determine the dose response of gambogic acid for inducing caspase activity, 5 μl of 20 μM gambogic acid in RPMI media was added to wells in triplicates. Two-fold serial dilutions were made for the lower concentrations. After incubation for 2 h, the samples were removed from the 5% CO2-95% humidity incubator and caspase activity was determined by addition of a fluorogenic substrate as described in Example 90.

[9] = tested on: poly(ADP)ribose polymerase (PARP) cleavage, PC3 cells; experiment: PARP cleavage western blot, PC3 cells; type: cell-based, human; settings: 5 μM, 4 h (FIG. 5D)
Method: Cleavage of the enzyme poly(ADP)ribose polymerase (PARP) by caspase-3 and related proteases is considered to be one of the molecular hallmarks of caspase-mediated apoptosis. Therefore, the ability of gambogic acid to induce PARP cleavage in four different human tumor cell lines (Jurkat cells, HL-60 cells, T47D cells and PC3 cells) was determined.
Cells were cultured in complete growth medium containing 10% FBS and treated with gambogic acid at concentrations of 2.5 μM or 5 μM for 2 to 4 h. Control cultures were treated with a drug vehicle (DMSO), or the well-characterized apoptosis inducer, staurosporine. At the end of the apoptosis induction period, the cells were harvested, washed once with PBS, quick-frozen on dry ice, and stored at −80° C. The cells were then lysed in a standard immunoblotting lysis buffer and samples of the lysates were electrophoresed on 4% to 20% gradient polyacrylamide gels. The proteins in the gels were then transferred to PVDF membranes and probed with a commercially-available rabbit polyclonal antibody to PARP.

[10] = tested on: HeLa cells; settings: reported by Asano et al., Phytochemistry 41:815-820 (1996); cited from earlier work
[11] = tested on: HEL cells; settings: reported by Asano et al., Phytochemistry 41:815-820 (1996); cited from earlier work
[12] = tested on: KB cell line; settings: reported by Lin et al., Magn. Reson. Chem. 31:340-347 (1993); cited from earlier work

**Q.** What does the source list for CC(C)=CCC[C@]1(C)C=Cc2c(O)c3c(c(CC=C(C)C)c2O1)O[C@]12C(=C[C@@H]4C[C@H]1C(C)(C)O[C@@]2(C/C=C(/C)C(=O)O)C4=O)C3=O [Example 1, Gambogic Acid]?
**A.** GI50 [1]: 400 nM; GI50 [2]: 500 nM; GI50 [3]: 500 nM; Inhibition of caspase activity by Inhibitor ([4]; 10 μM gambogic acid with 10 μM caspase inhibitor cbz-Val-Asp-fmk): +; Caspase activity ([4]; 10 μM gambogic acid, up to 24 h): + (Gambogic acid induced caspase activity in a ratio of greater than 2.5 (+) above untreated cell levels); Inhibition of caspase activity by Inhibitor ([5]; PC-3, 10 μM gambogic acid with 10 μM caspase inhibitor cbz-Val-Asp-fmk): +; Caspase activity ([5]; PC-3, 10 μM gambogic acid, up to 24 h): + (Gambogic acid induced caspase activity in a ratio of greater than 2.5 (+) above untreated cell levels); Morphological change of T47D cells ([6]; 2 h (FIG. 1B)): many of the cells have taken on a rounded, phase-bright morphology; Morphological change of T47D cells ([6]; 6 h (FIG. 1C)): most of the cells in the culture are rounded up and are beginning to detach from the dish; Nuclear fragmentation (Syto16 nuclear staining) [7]: condensed and fragmented nuclei in a large population of the cells; Sensitivity of T47D to induction of caspase activity relative to MRC-5 (dose response) [8]: more sensitive to induction of caspase activity than a normal fibroblast cell line MRC-5; PARP cleavage [9]: a moderate amount of PARP cleavage product; Cytotoxicity to HeLa cells [10]: cytotoxic; Cytotoxicity to HEL cells [11]: cytotoxic; Cytotoxicity against KB cell line [12]: cytotoxic
